This note sets out measurements from publication PMC9995618 (Journal of Genetic Engineering & Biotechnology, 2023).

In general, Ki refers to a dissociation constant, usually derived from enzyme kinetics or from competition with a known ligand. Lower therefore signals tighter binding.

In the test the test system is T1, tick larvae glutathione S transferase (TLGST).
T1 construct: native enzyme purified from larvae (42 kDa; 28 and 14 kDa subunits)
In words: CDNB-GSH conjugation assay, Lineweaver-Burk and Ki plot. The class given is biochemical, Hyalomma dromedarii.

`O=C(O)c1cc[c]([Hg][Cl])cc1` [p-chloromercuribenzoic acid] displayed a Ki of 300 µM.
